Measured values taken from US20200222474A1, “COMPOSITIONS AND METHODS FOR INCREASING PHYTOCHEMICAL BIOAVAILABLITY AND BIOACTIVITY” (North Carolina State University, priority 2017, published 2020).

Key:
[1] = test system: L. acidophilus NCFM; experiment: Plant glycoside uptake and metabolite analysis of L. acidophilus NCFM culture supernatants by UHPLC-DAD-Q-TOF-MS; format: cell-based, Lactobacillus acidophilus; settings: qualitative: depletion of the plant glycoside and/or appearance of its metabolites
Description: (§1) For initial growth and gene expression studies, L. acidophilus NCFM was propagated three times in semi-defined medium (SDM) supplemented with either 1% or 0,5% (w/v) of the plant glycoside or carbohydrate (Table 1). For the RNA-seq analysis, cells were harvested by centrifugation (3,220×10 min, 25° C.) in the mid-exponential phase (OD600=0.6-0.8) and stored at −80° C. for subsequent RNA isolation. For the mass spectrometry metabolite analyses, 200 μt samples were taken at 0, 3, 6, 9, 12, and 24 hours of growth; cells were removed by centrifugation; and supernatants were stored at −80° C. for further analysis.
Analysis of plant glycoside uptake from L. acidophilus NCFM culture supernatants using mass spectrometry. The supernatants of L. acidophilus NCFM cultures grown on amygdalin, arbutin, esculin or salicin as carbon sources were analyzed during 24 hours by ultra-high performance liquid chromatography-diode array detection-quadruple time of flight mass spectrometry (UHPLC-DAD-Q-TOF-MS). Samples were diluted 1:20 (v/v) with methanol and an injection volume of […] was used. Separation was carried out on an Agilent Poroshell 120 phenyl-hexyl column (2.1×150 mm, 2.7 μm) using the Agilent Infinity 1290 UHPLC system (Agilent Technologies, Santa Clara, Calif., USA) equipped with a UV/vis spectrum diode array detector. Separation was performed at 0.35 mL min-1., 60° C. with a linear gradient consisting of water (A) and acetonitrile (B) both buffered with 20 mM formic acid, starting at 10% B and increased to 100% in 15 min where it was held for 2 min, returned to 10% in 0.1 min and kept for 3 min. MS detection was performed on an Agilent 6550 iFunnel QTOF MS equipped with Agilent Dual Jet Stream electrospray ion source with the drying gas temperature of 160° C. and gas flow of 13 L min^−1, whereas the sheath gas temperature was 300° C. and flow was 16 L min-1. Ionization was conducted in ESI-mode with capillary voltage set to 4000 V and nozzle voltage to 500 V. Mass spectra were recorded as centroid data for m/z 85-1700 in MS mode with an acquisition rate of 10 spectra s^−1. To avoid carry-over, the needle seat was back-flushed for 15 s at 4 mL min-1 with each of: i) isopropanol: 0.2% ammonium hydroxide (w/v) in water (1:1 v/v); ii) acetonitrile with 2% formic acid (w/v); iii) water with 2% formic acid. Data was processed with the Agilent Mass Hunter Qualitative Analysis B.07.00 software package (Agilent Technologies) and molar concentrations were obtained from standard curves of the plant glycosides and their main metabolites. Targeted compound searches were performed using lists of previously identified compounds plus standard chemical modifications.

[2] = test system: L. acidophilus NCFM; experiment: Growth of L. acidophilus NCFM on plant glycosides as single carbon source (OD600); format: cell-based, Lactobacillus acidophilus; settings: for OD600 max: single carbon source, 200 μl cultures, 96 microtitre plates, corrected for medium without carbon source
Description: as §1
(§2) Phenotypic growth assays were performed using 1% (v/v) overnight cultures of L. acidophilus strains (Table 2) and other Lactobacillus species (Table 3) grown on SDM supplemented with 1% (w/v) glucose to inoculate 200 μL of SDM supplemented with 1% (w/v) of the examined carbohydrate (0.5% in the case of esculin) in 96-well microplate wells (Corning Costar, Corning, N.Y., USA) in duplicate or triplicate wells, respectively. The microplates were sealed with clear adhesive film, incubated at 37° C. in a Fluostar Optima microplate reader (BMG Labtech, Cary, N.C., USA), and the cell optical density (OD600) was monitored for 30 hours.
The growth of L. acidophilus NCFM was evaluated on twelve chemically diverse, nutritionally relevant and/or therapeutically active PGs 1; Table 1). FIG. 1A provides the structures and common sources of plant glycoside substrates described herein. The compounds that support growth of Lactobacillus acidophilus are in green. RI: β-D-Glcp; R2: Gentiobioside (β-D-Glcp-(1,6)-D-Glcp); R3: Rutinoside (α-L-Rhaf-(1,6)-D-Glcp). The graph in FIG. 1B depicts plant glycoside utilization analyzed by mass spectrometry and the growth as the maximum OD600. Due to the low solubility of polydatin, OD600 cannot be used as a growth metric and utilization of this compound is confirmed by the production of lactate as well as a high utilization level based on the metabolite analysis.

[3] = test system: L. johnsonii ATCC 33200; experiment: Phenotypic growth assay (OD600); format: cell-based; settings: SDM + 1% (w/v) carbohydrate (0.5% esculin), 37° C., 30 hours; corrected to medium without carbohydrate
Description: as §2

[4] = test system: L. intestinalis Th4, ATCC 49335, DSM 6629; experiment: Phenotypic growth assay (OD600); format: cell-based; settings: SDM + 1% (w/v) carbohydrate (0.5% esculin), 37° C., 30 hours; corrected to medium without carbohydrate
Description: as §2

[5] = test system: L. rhanmosus GG (ATCC 53103); experiment: Phenotypic growth assay (OD600); format: cell-based; settings: SDM + 1% (w/v) carbohydrate (0.5% esculin), 37° C., 30 hours; corrected to medium without carbohydrate
Description: as §2

[6] = test system: L. helveticus CNRZ32; experiment: Phenotypic growth assay (OD600); format: cell-based; settings: SDM + 1% (w/v) carbohydrate (0.5% esculin), 37° C., 30 hours; corrected to medium without carbohydrate
Description: as §2

[7] = test system: L. amyloverus ATCC 33620, DSM 20531; experiment: Phenotypic growth assay (OD600); format: cell-based; settings: SDM + 1% (w/v) carbohydrate (0.5% esculin), 37° C., 30 hours; corrected to medium without carbohydrate
Description: as §2

[8] = test system: L. plantarum sp. plantarum ATCC 14917, LA70; experiment: Phenotypic growth assay (OD600); format: cell-based; settings: SDM + 1% (w/v) carbohydrate (0.5% esculin), 37° C., 30 hours; corrected to medium without carbohydrate
Description: as §2

[9] = test system: L. reuteri (ATCC 23272, DSM 20016); experiment: Phenotypic growth assay (OD600); format: cell-based; settings: SDM + 1% (w/v) carbohydrate (0.5% esculin), 37° C., 30 hours; corrected to medium without carbohydrate
Description: as §2

[10] = test system: L. fermentum ATCC 14931; experiment: Phenotypic growth assay (OD600); format: cell-based; settings: SDM + 1% (w/v) carbohydrate (0.5% esculin), 37° C., 30 hours; corrected to medium without carbohydrate
Description: as §2

[11] = test system: L. gasseri ATCC 33323; experiment: Phenotypic growth assay (OD600); format: cell-based; settings: SDM + 1% (w/v) carbohydrate (0.5% esculin), 37° C., 30 hours; corrected to medium without carbohydrate
Description: as §2

[12] = test system: L. jensenii ATCC 25258, 62G, DSM 20557; experiment: Phenotypic growth assay (OD600); format: cell-based; settings: SDM + 1% (w/v) carbohydrate (0.5% esculin), 37° C., 30 hours; corrected to medium without carbohydrate
Description: as §2

[13] = test system: L. acidophilus LA-1; experiment: Phenotypic growth assay (OD600); format: cell-based; settings: SDM + 1% (w/v) carbohydrate (0.5% esculin), 37° C., 30 hours; corrected to medium without carbohydrate
Description: as §2

[14] = test system: L. crispatus ATCC 33820, DSM 20584; experiment: Phenotypic growth assay (OD600); format: cell-based; settings: SDM + 1% (w/v) carbohydrate (0.5% esculin), 37° C., 30 hours; corrected to medium without carbohydrate
Description: as §2

[15] = test system: L. animalis DSM 20602; experiment: Phenotypic growth assay (OD600); format: cell-based; settings: SDM + 1% (w/v) carbohydrate (0.5% esculin), 37° C., 30 hours; corrected to medium without carbohydrate
Description: as §2

[16] = growth concentration 0.5% (w/v)

In the case of `COc1cc(C=O)ccc1O[C@@H]1O[C@H](CO)[C@@H](O)[C@H](O)[C@H]1O` [Vanilin 4-O-β-glucoside], the “Catabolism based on MS” value [1, 16] is reported as “Yes” and the OD600 max [2, 16] is reported as 1.3.
For `OCc1ccccc1O` [salicyl alcohol], the “ability of the aglycone per se to support growth” value ([2]; data not shown) was “unable to support growth”.
For `OC[C@H]1O[C@@H](Oc2ccc(O)cc2)[C@H](O)[C@@H](O)[C@@H]1O` [Arbutin], the “Growth (OD600 max class) of L. johnsonii ATCC 33200” value [3] was “+ (“+” signifies 0.3 > OD600 max > 0.1.)”, the “Growth (OD600 max class) of L. intestinalis Th4, ATCC 49335, DSM 6629” value [4] was “− (“−” signifies OD600 max < 0.1.)” and the “Growth (OD600 max class) of L. rhanmosus GG (ATCC 53103)” value [5] was “+++ (“+++” signifies OD600 max > 0.6.)”. The “Growth (OD600 max class) of L. helveticus CNRZ32” value [6] was “− (“−” signifies OD600 max < 0.1.)”, the “Growth (OD600 max class) of L. amyloverus ATCC 33620, DSM 20531” value [7] was “− (“−” signifies OD600 max < 0.1.)” and the “Growth (OD600 max class) of L. plantarum sp. plantarum ATCC 14917, LA70” value [8] was “+++ (“+++” signifies OD600 max > 0.6.)”. The “Growth (OD600 max class) of L. reuteri (ATCC 23272, DSM 20016)” value [9] was “− (“−” signifies OD600 max < 0.1.)”, the “Growth (OD600 max class) of L. fermentum ATCC 14931” value [10] was “− (“−” signifies OD600 max < 0.1.)” and the “Growth (OD600 max class) of L. gasseri ATCC 33323” value [11] was “− (“−” signifies OD600 max < 0.1.)”. The “Growth (OD600 max class) of L. jensenii ATCC 25258, 62G, DSM 20557” value [12] was “+ (“+” signifies 0.3 > OD600 max > 0.1.)”, the “Growth (OD600 max class) of L. acidophilus LA-1” value [13] was “− (“−” signifies OD600 max < 0.1.)” and the “Growth (OD600 max class) of L. crispatus ATCC 33820, DSM 20584” value [14] was “− (“−” signifies OD600 max < 0.1.)”. The “Growth (OD600 max class) of L. animalis DSM 20602” value [15] was “+ (“+” signifies 0.3 > OD600 max > 0.1.)”, the “Catabolism based on MS” value ([1]; growth concentration 1% (w/v)) was “No” and the “Growth (OD600 max class) of L. acidophilus NCFM” value ([2]; SDM + 1% (w/v) carbohydrate (0.5% esculin), 37° C., 30 hours, corrected to medium without carbohydrate) was “− (“−” signifies OD600 max < 0.1.)”. For the same compound, the OD600 max ([2]; growth concentration 1% (w/v)) was 0.0.
With `OCC1=C[C@@H](O)[C@@H]2C=CO[C@@H](O[C@@H]3O[C@H](CO)[C@@H](O)[C@H](O)[C@H]3O)[C@H]12` [Aucubin] the “Catabolism based on MS” value [1, 16] was “No” and the OD600 max [2, 16] was 0.0.
`COc1cc2ccc(=O)oc2c(O[C@@H]2O[C@H](CO)[C@@H](O)[C@H](O)[C@H]2O)c1O` [Fraxin] was tested, and the “Catabolism based on MS” value [1, 16] was “Yes” and the OD600 max [2, 16] was 0.4.
For `C[C@@H]1O[C@@H](OC[C@H]2O[C@@H](Oc3c(-c4ccc(O)c(O)c4)oc4cc(O)cc(O)c4c3=O)[C@H](O)[C@@H](O)[C@@H]2O)[C@H](O)[C@H](O)[C@H]1O` [Rutin hydrate], the OD600 max [2, 16] was 0.1.
`C=CCC(=NOS(=O)(=O)O)S[C@@H]1O[C@H](CO)[C@@H](O)[C@H](O)[C@H]1O` (stereo in doubt) [Sinigrin hydrate] was tested, and the OD600 max [2, 16] was 0.0.
In the case of `O=c1c(O[C@@H]2O[C@H](CO)[C@@H](O)[C@H](O)[C@H]2O)c(-c2ccc(O)c(O)c2)oc2cc(O)cc(O)c12` [Isoquercetin], the OD600 max [2, 16] is reported as 0.0.
With `O=c1c(-c2ccc(O)cc2)coc2cc(O[C@@H]3O[C@H](CO)[C@@H](O)[C@H](O)[C@H]3O)ccc12` [Daidzin] the OD600 max [2, 16] was 0.0.
